Assay results published in article PMC10693969 (Parasites, Hosts and Diseases, 2023).
Read-outs that look alike come from different tables or passages of the source.

What was measured:
[1] = system: C6 rat glial cells (ATCC CCL-107); experiment: Cytotoxicity against C6 glial cells; assay type: cell-based; details: C6 glial cells
[2] = Cytotoxicity against C6 glial cells; assay type: cell-based, rat; details: rat, C6 glial cells
[3] = system: A. polyphaga (ATCC-30461) trophozoites; experiment: In vitro anti-Acanthamoeba activity, A. polyphaga trophozoite viability; assay type: cell-based; details: for SI, sensitivity index (CC50 C6 glial cells / IC50 A. polyphaga): ratio CC50 C6 glial cells / IC50 A. polyphaga
[4] = system: A. castellanii (ATCC-30868) trophozoites; experiment: In vitro anti-Acanthamoeba activity, A. castellanii trophozoite viability; assay type: cell-based; details: for SI, sensitivity index (CC50 C6 glial cells / IC50 A. castellanii): ratio CC50 C6 glial cells / IC50 A. castellanii
[5] = system: Naegleria fowleri trophozoites (Carter NF69 strain, ATCC 30215); experiment: In vitro anti-N. fowleri activity, trophozoite viability; assay type: cell-based; details: for SI, sensitivity index (CC50 C6 glial cells / IC50 N. fowleri): ratio CC50 C6 glial cells / IC50 N. fowleri; for antiamoebic activity against N. fowleri (in words): in vitro
[6] = system: murine macrophages J774A.1; details: cited from earlier work
[7] = system: A. castellanii trophozoites; details: cited from earlier work
[8] = Acanthamoeba polyphaga, ATCC30461, 48 h, read-out: A. polyphaga (IC50 ±SD, μM), trophozoites, 0–400 μM, 25°C, 48 h, mean±SD of 3 independent experiments
[9] = read-out: A. polyphaga (IC50 ±SD), trophozoites, 0–400 μM, 25°C, 48 h, mean±SD of 3 independent experiments
[10] = Acanthamoeba castellanii, ATCC30868, 48 h, read-out: A. castellanii (IC50 ±SD, μM), trophozoites, 0–400 μM, 25°C, 48 h, mean±SD of 3 independent experiments
[11] = read-out: A. castellanii (IC50 ±SD), trophozoites, 0–400 μM, 25°C, 48 h, mean±SD of 3 independent experiments
[12] = Naegleria fowleri, ATCC30215, 48 h, read-out: N. fowleri (IC50 ±SD, μM), trophozoites, 0–400 μM, 37°C, 48 h, mean±SD of 3 independent experiments

For `O=c1cc(-c2ccc(O)cc2)oc2cc(O)cc(O)c12` [Apigenin, apigenin], the “cytotoxicity to C6 glial cells (in words)” value [1] was “did not show significative cytotoxicity”, the CC50 [2] was 243.1 ± 0.98 µM and the IC50 [3, 8] was < 50 µM. For the same molecule, the “SI, sensitivity index (CC50 C6 glial cells / IC50 A. polyphaga)” value [3] was 8.58, the IC50 [3, 9] was 28.33 ± 0.13 µM and the IC50 [4, 10] was < 50 µM. For the same molecule, the “SI, sensitivity index (CC50 C6 glial cells / IC50 A. castellanii)” value [4] was 5.60, the IC50 [4, 11] was 43.4 ± 0.8 µM and the IC50 [5, 12] was 94.65 ± 0.58 µM. For the same molecule, the “SI, sensitivity index (CC50 C6 glial cells / IC50 N. fowleri)” value [5] was 2.57, the “antiamoebic activity against N. fowleri (in words)” value ([5]; trophozoites) was “did not show significative anti-N. fowleri activities” and the “cytotoxicity against murine macrophages J774A.1 (in words)” value [6] was “potential cytotoxicity”.
For `COc1ccc2c(c[n+](C)c3c4cc5c(cc4ccc23)OCO5)c1OC` [Chelerythrine, chelerythrine chloride], the “cytotoxicity to C6 glial cells (in words)” value [1] was “potent cytotoxicity”, the “cytotoxicity to C6 glial cells (in words)” value ([1]; listed as chelerythrine) was “strong toxicity” and the CC50 [2] was 16.4 ± 0.45 µM. For the same molecule, the IC50 ([3]; Acanthamoeba polyphaga, ATCC30461, 48 h, read-out: A. polyphaga (IC50 ±SD, μM)) was 102 ± 1.4 µM, the “antiamoebic activity against A. polyphaga (in words)” value ([3]; trophozoites, in vitro) was “did not exhibit potential or selective antiamoebic activity” and the IC50 ([4]; Acanthamoeba castellanii, ATCC30868, 48 h, read-out: A. castellanii (IC50 ±SD, μM)) was 148.1 ± 1.38 µM. The “antiamoebic activity against A. castellanii (in words)” value ([4]; trophozoites, in vitro) was “did not exhibit potential or selective antiamoebic activity”, the IC50 ([5]; Naegleria fowleri, ATCC30215, 48 h, read-out: N. fowleri (IC50 ±SD, μM)) was 11.8 ± 1.15 µM and the “SI, sensitivity index (CC50 C6 glial cells / IC50 N. fowleri)” value [5] was 1.39. For the same molecule, the “antiamoebic activity against N. fowleri (in words)” value ([5]; trophozoites) was “strong antiamoebic activity”.
With `COc1cc(/C=C/C(O)=C/C(=O)/C=C/c2ccc(O)cc2)ccc1O` [Demethoxycurcumin, demethoxycurcumin] the CC50 [2] was > 296 µM, the “SI, sensitivity index (CC50 C6 glial cells / IC50 A. polyphaga)” value [3] was >13.48 and the “SI, sensitivity index (CC50 C6 glial cells / IC50 A. polyphaga)” value ([3]; listed as demethoxycurcumin) was > 8. The IC50 [3, 9] was 21.93 ± 0.18 µM, the IC50 ([3]; read-out: A. polyphaga (IC50 ±SD), trophozoites, 0–400 μM, 25°C, 48 h, mean±SD of 3 independent experiments, listed as demethoxycurcumin) was < 40 µM and the IC50 [4, 10] was < 50 µM. The “SI, sensitivity index (CC50 C6 glial cells / IC50 A. castellanii)” value [4] was >8.19, the “SI, sensitivity index (CC50 C6 glial cells / IC50 A. castellanii)” value ([4]; listed as demethoxycurcumin) was > 8 and the IC50 [4, 11] was 36.1 ± 0.82 µM. For the same molecule, the IC50 ([4]; read-out: A. castellanii (IC50 ±SD), trophozoites, 0–400 μM, 25°C, 48 h, mean±SD of 3 independent experiments, listed as demethoxycurcumin) was < 40 µM, the “toxicity to A. castellanii trophozoites (in words)” value [7] was “toxic” and the IC50 [5, 12] was < 30 µM. For the same molecule, the “SI, sensitivity index (CC50 C6 glial cells / IC50 N. fowleri)” value [5] was > 7, the “SI, sensitivity index (CC50 C6 glial cells / IC50 N. fowleri)” value ([5]; listed as demethoxycurcumin) was > 8 and the IC50 ([5]; read-out: N. fowleri (IC50 ±SD), trophozoites, 0–400 μM, 37°C, 48 h, mean±SD of 3 independent experiments) was 27.1 ± 0.35 µM. The IC50 ([5]; read-out: N. fowleri (IC50 ±SD), trophozoites, 0–400 μM, 37°C, 48 h, mean±SD of 3 independent experiments, listed as demethoxycurcumin) was < 40 µM.
In the case of `Oc1ccc(/C=C/c2cc(O)cc(O)c2)cc1` [Resveratrol, resveratrol], the CC50 [2] is reported as 220.78 ± 0.09 µM, the IC50 [3, 8] is reported as < 50 µM and the “SI, sensitivity index (CC50 C6 glial cells / IC50 A. polyphaga)” value [3] is reported as 7.04. The IC50 [3, 9] was 31.35 ± 0.08 µM, the IC50 [4, 10] was < 50 µM and the “SI, sensitivity index (CC50 C6 glial cells / IC50 A. castellanii)” value [4] was 5.52. The IC50 [4, 11] was 40.03 ± 0.39 µM, the “toxicity to A. castellanii trophozoites (in words)” value [7] was “toxic” and the IC50 [5, 12] was 47.19 ± 0.36 µM. For the same molecule, the “SI, sensitivity index (CC50 C6 glial cells / IC50 N. fowleri)” value [5] was 4.68.
